# From ChEMBL document CHEMBL4308841, “Synthesis, in vitro antiproliferative activity, and kinase inhibitory effects of pyrazole-containing diarylureas and diarylamides” (Eur J Med Chem, 2018)
# Assays:
# [1] = tested on: MDA-MB-468; test: Growth inhibition of human MDA-MB-468 cells assessed as cell growth at 100 uM incubated for 48 hrs by sulforhodamine B assay relative to control; format: functional; conditions: MDA-MB-468, 48 h, read-out: Activity
# [2] = tested on: PC-3; test: Growth inhibition of human PC3 cells assessed as cell growth at 1 uM incubated for 48 hrs by sulforhodamine B assay relative to control; format: functional; conditions: PC-3, 48 h, read-out: Activity
# [3] = tested on: ACHN; test: Growth inhibition of human ACHN cells incubated for 48 hrs by sulforhodamine B assay; format: functional, cell-based
# [4] = tested on: SF-268; test: Growth inhibition of human SF268 cells assessed as cell growth at 0.01 uM incubated for 48 hrs by sulforhodamine B assay relative to control; format: functional; conditions: SF-268, 48 h, read-out: Activity
# [5] = tested on: A498; test: Growth inhibition of human A498 cells assessed as cell growth at 0.1 uM incubated for 48 hrs by sulforhodamine B assay relative to control; format: functional; conditions: A498, 48 h, read-out: Activity
# [6] = tested on: SK-MEL-5; test: Growth inhibition of human SK-MEL-5 cells assessed as cell growth at 0.01 uM incubated for 48 hrs by sulforhodamine B assay relative to control; format: functional; conditions: SK-MEL-5, 48 h, read-out: Activity
# [7] = tested on: UACC-62; test: Growth inhibition of human UACC62 cells assessed as cell growth at 0.1 uM incubated for 48 hrs by sulforhodamine B assay relative to control; format: functional; conditions: UACC-62, 48 h, read-out: Activity
# [8] = tested on: UO-31; test: Growth inhibition of human UO31 cells assessed as cell growth at 0.1 uM incubated for 48 hrs by sulforhodamine B assay relative to control; format: functional; conditions: UO-31, 48 h, read-out: Activity
# [9] = tested on: OVCAR-5; test: Growth inhibition of human OVCAR5 cells assessed as cell growth at 0.01 uM incubated for 48 hrs by sulforhodamine B assay relative to control; format: functional; conditions: OVCAR-5, 48 h, read-out: Activity
# [10] = tested on: Malme-3M; test: Growth inhibition of human MALME-3M cells incubated for 48 hrs by sulforhodamine B assay; format: functional, cell-based
# [11] = tested on: HCT-15; test: Growth inhibition of human HCT15 cells incubated for 48 hrs by sulforhodamine B assay; format: functional, cell-based; conditions: HCT-15, 48 h
# [12] = tested on: MOLT-4; test: Growth inhibition of human MOLT4 cells assessed as cell growth at 0.01 uM incubated for 48 hrs by sulforhodamine B assay relative to control; format: functional; conditions: MOLT-4, 48 h, read-out: Activity
# [13] = tested on: A498; test: Growth inhibition of human A498 cells assessed as cell growth at 1 uM incubated for 48 hrs by sulforhodamine B assay relative to control; format: functional; conditions: A498, 48 h, read-out: Activity
# [14] = tested on: COLO 205; test: Growth inhibition of human COLO205 cells incubated for 48 hrs by sulforhodamine B assay; format: functional, cell-based; conditions: COLO 205, 48 h
# [15] = tested on: NCI-H522; test: Growth inhibition of human NCI-H522 cells assessed as cell growth at 100 uM incubated for 48 hrs by sulforhodamine B assay relative to control; format: functional; conditions: NCI-H522, 48 h, read-out: Activity
# [16] = tested on: NCI-H23; test: Growth inhibition of human NCI-H23 cells assessed as cell growth at 1 uM incubated for 48 hrs by sulforhodamine B assay relative to control; format: functional; conditions: NCI-H23, 48 h, read-out: Activity
# [17] = tested on: OVCAR-8; test: Growth inhibition of human OVCAR8 cells assessed as cell growth at 1 uM incubated for 48 hrs by sulforhodamine B assay relative to control; format: functional; conditions: OVCAR-8, 48 h, read-out: Activity
# [18] = tested on: SN12C; test: Growth inhibition of human SN12C cells assessed as cell growth at 0.1 uM incubated for 48 hrs by sulforhodamine B assay relative to control; format: functional; conditions: read-out: Activity
# [19] = tested on: OVCAR-5; test: Growth inhibition of human OVCAR5 cells assessed as cell growth at 100 uM incubated for 48 hrs by sulforhodamine B assay relative to control; format: functional; conditions: OVCAR-5, 48 h, read-out: Activity
# [20] = tested on: OVCAR-4; test: Growth inhibition of human OVCAR4 cells assessed as cell growth at 1 uM incubated for 48 hrs by sulforhodamine B assay relative to control; format: functional; conditions: OVCAR-4, 48 h, read-out: Activity
# [21] = tested on: SN12C; test: Growth inhibition of human SN12C cells assessed as cell growth at 100 uM incubated for 48 hrs by sulforhodamine B assay relative to control; format: functional; conditions: read-out: Activity
# [22] = tested on: HCT-15; test: Growth inhibition of human HCT15 cells assessed as cell growth at 1 uM incubated for 48 hrs by sulforhodamine B assay relative to control; format: functional; conditions: HCT-15, 48 h, read-out: Activity
# [23] = tested on: CCRF-CEM; test: Growth inhibition of human CCRF-CEM cells assessed as cell growth at 100 uM incubated for 48 hrs by sulforhodamine B assay relative to control; format: functional; conditions: read-out: Activity
# [24] = tested on: RPMI-8226; test: Growth inhibition of human RPMI8226 cells assessed as cell growth at 1 uM incubated for 48 hrs by sulforhodamine B assay relative to control; format: functional; conditions: RPMI-8226, 48 h, read-out: Activity
# [25] = tested on: SK-MEL-5; test: Growth inhibition of human SK-MEL-5 cells assessed as cell growth at 0.1 uM incubated for 48 hrs by sulforhodamine B assay relative to control; format: functional; conditions: SK-MEL-5, 48 h, read-out: Activity
# [26] = tested on: M14; test: Growth inhibition of human M14 cells assessed as cell growth at 1 uM incubated for 48 hrs by sulforhodamine B assay relative to control; format: functional; conditions: M14, 48 h, read-out: Activity
# [27] = tested on: LOX IMVI; test: Growth inhibition of human LOXIMVI cells assessed as cell growth at 0.1 uM incubated for 48 hrs by sulforhodamine B assay relative to control; format: functional; conditions: read-out: Activity
# [28] = tested on: UACC-62; test: Growth inhibition of human UACC62 cells incubated for 48 hrs by sulforhodamine B assay; format: functional, cell-based; conditions: UACC-62, 48 h
# [29] = tested on: SK-MEL-5; test: Growth inhibition of human SK-MEL-5 cells incubated for 48 hrs by sulforhodamine B assay; format: functional, cell-based; conditions: SK-MEL-5, 48 h
# [30] = tested on: SK-MEL-5; test: Growth inhibition of human SK-MEL-5 cells assessed as cell growth at 1 uM incubated for 48 hrs by sulforhodamine B assay relative to control; format: functional; conditions: SK-MEL-5, 48 h, read-out: Activity
# [31] = read-out: LC50 (the source's name)
# [32] = read-out: pLC50 (the source's name) (converted)
smiles,measurement,setting,value
COc1cc(Cl)cc(-c2nn(-c3cccc(NC(=O)Nc4ccc(Cl)c(C(F)(F)F)c4)c3)cc2-c2ccncc2)c1,growth at 100 µM,[1],-27%
same,growth at 1 µM,[2],14%
same,GI50,[3]; read-out: GI50,0.752 µM
same,CC50,[3]; [31],> 100 µM
same,TGI,[3]; read-out: TGI,10.2 µM
same,GI50,[3]; read-out: pGI50 (converted),0.759 µM
same,CC50,[3]; [32],> 100 µM
same,TGI,[3]; read-out: pTGI (converted),14.5 µM
same,growth at 0.01 µM,[4],95%
same,growth at 0.1 µM,[5],59%
same,growth at 0.01 µM,[6],96%
same,growth at 0.1 µM,[7],93%
same,growth at 0.1 µM,[8],55%
same,growth at 0.01 µM,[9],54%
same,GI50,[10]; read-out: GI50,1.21 µM
same,CC50,[10]; [31],> 100 µM
same,TGI,[10]; read-out: TGI,85 µM
same,GI50,[10]; read-out: pGI50 (converted),1.7 µM
same,CC50,[10]; [32],> 100 µM
same,TGI,[10]; read-out: pTGI (converted),3.16 µM
same,GI50,[11]; read-out: GI50,0.493 µM
same,CC50,[11]; [31],6.46 µM
same,TGI,[11]; read-out: TGI,24 µM
same,GI50,[11]; read-out: pGI50 (converted),0.49 µM
same,CC50,[11]; [32],8.51 µM
same,TGI,[11]; read-out: pTGI (converted),2.4 µM
same,growth at 0.01 µM,[12],99%
same,growth at 1 µM,[13],78%
same,GI50,[14]; read-out: GI50,1.53 µM
same,CC50,[14]; [31],6.33 µM
same,TGI,[14]; read-out: TGI,31.1 µM
same,GI50,[14]; read-out: pGI50 (converted),1.51 µM
same,CC50,[14]; [32],6.31 µM
same,TGI,[14]; read-out: pTGI (converted),3.09 µM
same,growth at 100 µM,[15],-66%
same,growth at 1 µM,[16],60%
same,growth at 1 µM,[17],43%
same,growth at 0.1 µM,[18],100%
same,growth at 100 µM,[19],-89%
same,growth at 1 µM,[20],62%
same,growth at 100 µM,[21],-43%
same,growth at 1 µM,[22],35%
same,growth at 100 µM,[23],-29%
same,growth at 1 µM,[24],17%
same,growth at 0.1 µM,[25],98%
same,growth at 1 µM,[26],65%
same,growth at 0.1 µM,[27],97%
same,IC50,[28],1.27 µM
same,GI50,[28]; read-out: GI50,1.27 µM
same,CC50,[28]; [31],9.51 µM
same,TGI,[28]; read-out: TGI,35.4 µM
same,GI50,[28]; read-out: pGI50 (converted),1.29 µM
same,CC50,[28]; [32],9.77 µM
same,TGI,[28]; read-out: pTGI (converted),4.9 µM
same,GI50,[29]; read-out: GI50,1.54 µM
same,CC50,[29]; [31],5.58 µM
same,TGI,[29]; read-out: TGI,29.3 µM
same,GI50,[29]; read-out: pGI50 (converted),1.55 µM
same,CC50,[29]; [32],5.62 µM
same,TGI,[29]; read-out: pTGI (converted),8.32 µM
same,growth at 1 µM,[30],83%
COc1cc(Cl)cc(-c2nn(-c3cccc(NC(=O)Nc4cc(C(F)(F)F)cc(C(F)(F)F)c4)c3)cc2-c2ccncc2)c1,growth at 100 µM,[1],-40%
same,growth at 1 µM,[2],5%
same,IC50,[3],0.4 µM
same,GI50,[3]; read-out: GI50,0.397 µM
same,CC50,[3]; [31],> 100 µM
same,TGI,[3]; read-out: TGI,12.5 µM
same,GI50,[3]; read-out: pGI50 (converted),0.398 µM
same,CC50,[3]; [32],> 100 µM
same,TGI,[3]; read-out: pTGI (converted),12.6 µM
same,growth at 0.01 µM,[4],97%
same,growth at 0.1 µM,[5],69%
same,growth at 0.01 µM,[6],100%
same,growth at 0.1 µM,[7],92%
same,growth at 0.1 µM,[8],75%
same,growth at 0.01 µM,[9],99%
same,IC50,[10],0.53 µM
same,GI50,[10]; read-out: GI50,0.53 µM
same,CC50,[10]; [31],> 100 µM
same,TGI,[10]; read-out: TGI,3.57 µM
same,GI50,[10]; read-out: pGI50 (converted),0.537 µM
same,CC50,[10]; [32],> 100 µM
same,TGI,[10]; read-out: pTGI (converted),3.55 µM
same,IC50,[11],0.35 µM
same,GI50,[11]; read-out: GI50,0.352 µM
same,TGI,[11]; read-out: TGI,2.25 µM
same,GI50,[11]; read-out: pGI50 (converted),0.355 µM
same,CC50,[11]; [32],74.1 µM
same,TGI,[11]; read-out: pTGI (converted),2.82 µM
same,growth at 0.01 µM,[12],94%
same,growth at 1 µM,[13],37%
same,IC50,[14],0.45 µM
same,GI50,[14]; read-out: GI50,0.448 µM
same,TGI,[14]; read-out: TGI,1.88 µM
same,GI50,[14]; read-out: pGI50 (converted),0.447 µM
same,CC50,[14]; [32],6.92 µM
same,TGI,[14]; read-out: pTGI (converted),1.86 µM
same,growth at 100 µM,[15],-69%
same,growth at 1 µM,[16],8%
same,growth at 1 µM,[17],12%
same,growth at 0.1 µM,[18],97%
same,growth at 100 µM,[19],-80%
same,growth at 1 µM,[20],30%
same,growth at 100 µM,[21],-61%
same,growth at 1 µM,[22],17%
same,growth at 100 µM,[23],-29%
same,growth at 1 µM,[24],-12%
same,growth at 0.1 µM,[25],97%
same,growth at 1 µM,[26],25%
same,IC50,[28],0.36 µM
same,GI50,[28]; read-out: GI50,0.357 µM
same,CC50,[28]; [31],0.0532 µM
same,TGI,[28]; read-out: TGI,1.5 µM
same,GI50,[28]; read-out: pGI50 (converted),0.355 µM
same,CC50,[28]; [32],5.37 µM
same,TGI,[28]; read-out: pTGI (converted),1.51 µM
same,IC50,[29],1.14 µM
same,GI50,[29]; read-out: GI50,1.14 µM
same,CC50,[29]; [31],0.0504 µM
same,TGI,[29]; read-out: TGI,2.39 µM
same,GI50,[29]; read-out: pGI50 (converted),1.15 µM
same,CC50,[29]; [32],5.01 µM
same,TGI,[29]; read-out: pTGI (converted),2.4 µM
same,growth at 1 µM,[30],50%
